Converted amounts (≈) assume the structure as drawn. Like-named read-outs stand apart in the source and are kept apart here.
Tests used:
mice [1] = assay: Acetic acid induced writhing in mice; format: in vivo; settings: Mus musculus; oral; 95% confidence limits 2.1-3.4
Experimental: (§1) Sprague-Dawley rats, Swiss mice, California rabbits and mongrel guinea pigs and cats were used. 1-azaxanthone was administered as a suspension in 0.5 % w/v of carboxymethyl-cellulose in distilled water for oral and i.p. administration. When administered i.v. or to the nutrient liquid of the isolated tissues, a solution of the compound in isopropylidenglycerol (15 mg/ml) was used.
Acetic acid induced writhing in mice (according to R. Koster et al., Fedn. Proc. 1959, 18, 412).

rat inflamed paw = assay: Hyperalgesia in rat inflamed paw (Randall and Selitto); format: in vivo; settings: po, per os, read-out: AID2 (dose that increases twice the analgesic threshold of the control animals)
Experimental: as §1
Hyperalgesia in rat inflamed paw (according to L. O. Randall and J. J. Selitto, Arch. Int. Pharmacodyn. 1957, 111, 409).

mice [2] = assay: Hot plate test in mice; format: in vivo; settings: Mus musculus; oral, 1 hour before; plate 57°±0.5° C.; 95% confidence limits 11-39
Experimental: as §1
Hot plate test in mice. An analgesimeter LETICA model 7000 was used, the temperature of the plate being maintained at 57°±0.5° C. The test compound was administered by oral route 1 hour before placing the animals on the plate.

rats [3] = assay: D'Amour and Smith test in rats; format: in vivo; settings: oral dose of ca. 100 mg/kg, 1 hour before testing
Experimental: as §1
"D'Amour and Smith" test in rats (see J. Pharmacol. Exptl. Therap., 1941, 72, 74). An analgesimeter LETICA model 7100 was used. An oral dose of ca. 100 mg/kg of 1-azaxanthone, administered 1 hour before testing produced analgesia in 50% of the animals.

rats [4] = assay: Yeast-induced hyperthermia in rats; format: in vivo
Experimental: as §1
Yeast-induced hyperthermia in rats (according to U. M. Teotino et al., J. Med. Chem. 1963, 6, 248). The test compound was administered by oral route 1 hour before the s.c. injection of the pyrogenic agent.

rat paw oedema = assay: Carrageenan rat paw oedema; format: in vivo; settings: po, per os, 95% confidence limits 6.0-37.3
Experimental: as §1
(§2) Carrageenan rat paw oedema (according to C. A. Winter et al., Proc. Soc. Exptl. Biol. N.Y. 1962, 111, 544).

[5] = system: bilaterally suprarenalectomized rats; assay: Carrageenan paw oedema in bilaterally suprarenalectomized rats; format: in vivo; settings: 200 mg/kg per os
Experimental: as §1, §2

[6] = system: turpentine-induced pleurisy; assay: Turpentine-induced pleurisy; settings: in vivo
Guinea pig ileum = Guinea pig ileum in vitro spasmolytic assay; settings: Cavia porcellus, read-out: ED50 (dose which inhibits the response of the ileum to the agonist by 50%)
Experimental: as §1
Guinea pig ileum (according to R. Magnus, Pflugers Arch. Ges. Physiol. 1904, 102, 123). In this "in vitro" assay 1-azaxanthone had the following ED50 with different agonists (dose which inhibits the response of the ileum to the agonists by 50%): […]

mice [7] = assay: Charcoal intestinal transit in mice; format: in vivo
Experimental: as §1
Charcoal intestinal transit in mice. 1-azaxanthone was administered i.p. 1 hour before the oral administration of 0.1 ml/mouse of an active charcoal suspension (10 g of charcoal and 1 g of gum arabicum +70 ml of distilled water). 1.5 hours after the charcoal administration the animals were sacrificed, and the length travelled by the charcoal from the pylorus was measured.

guinea pig [8] = assay: Inhibition of the bronchoconstrictor response to histamine in guinea pig; format: in vivo; settings: 8 mg/kg i.v., 5 μg histamine
Experimental: as §1
Inhibition of the bronchoconstrictor response to histamine in guinea pig (according to H. Konzett and R. Rossler, Arch. Exptl. Path. Pharmak. 1940, 195, 71). 1-azaxanthone (8 mg/kg i.v.) inhibited the response induced by 5 μg of histamine by 100% at 5 min, 67% at 10 min, 50% at 20 min, and 15% at 30 min after administration.

guinea pig [9] = assay: Inhibition of the bronchoconstrictor response to bradykinin in guinea pig; format: in vivo; settings: 8 mg/kg i.v.; 10 min after 6 μg and 8 min before 12 μg of bradykinin
Experimental: as §1
Inhibition of the bronchoconstrictor response to bradykinin in guinea pig (according to H. Konzett and R. Rossler, ibid.). 1-azaxanthone (8 mg/kg i.v.) produced a 100% inhibition of the response induced by bradykinin when the test compound was administered 10 min after 6 μg and 8 min before 12 μg of bradykinin.

rats [10] = assay: Diuretic activity in rats; format: in vivo; settings: 10 mg/kg oral
Experimental: as §1
1-azaxanthone was administered orally to rats (groups of 10) in a volume of 5 ml/rat immediately before allocating the animals to metabolism cages. The total volume of urine was measured 6 and 24 hours later. 10 mg/kg of 1-azaxanthone increased the total volume with respect to the control group by 94% in the first 6 hours and 44% in the 24 hours period.

[11] = Acute toxicity in rats and mice (overall ranges); settings: in vivo, depending on species and sex
Experimental: The acute toxicity of 1-azaxanthone was evaluated in rats and mice. LD50 values ranged between 400-600 mg/kg (i.p. route) and between 600-2000 mg/kg (oral route) depending on species and sex.

rats [12] = assay: 14 day oral tolerance of gastric and rectal mucosae and liver elimination of sulphobromophthalein; format: in vivo; settings: 200 mg/kg/day oral, 14 consecutive days
rats [13] = assay: Subacute toxicity study in rats (42 days); format: in vivo
rats [14] = assay: Chronic administration to rats (92 days); format: in vivo
rats [15] = assay: Preliminary teratogenesis studies in rats; format: in vivo
cardiocirculatory system = assay: Effect on the cardiocirculatory system; format: in vivo; settings: rats, cats and dogs
central nervous system = assay: Effect on the central nervous system; format: in vivo, mice and rats

Structure (SMILES): O=c1c2ccccc2oc2ncccc12 [1-azaxanthone]
- ED50 (mice [1]): 2.8 mg/kg
- ED (2-fold analgesic threshold) (rat inflamed paw): 18.4 mg/kg
- ED50 (mice [2]): 21 mg/kg
- animals with analgesia (rats [3]): 50%
- antipyretic effect (rats [4]; 0.375 mg/kg, 2nd and 3rd hours): statistically significant antipyretic effect
- prevention of hyperthermia (rats [4]; 6.2 mg/kg oral, 4 hours after yeast injection (control increase 1.8° C.)): completely prevented the hyperthermia
- decrease of hyperthermia with respect to control increase (rats [4]; 6.2 mg/kg oral, 6 hours after yeast injection (control total increase 1.4° C.)): 0.8 °C
- ED50 (rat paw oedema): 21.7 mg/kg
- inhibition of oedema [5]: 39%
- activity in turpentine-induced pleurisy [6]: showed activity
- IC50 (Guinea pig ileum; agonist: Acetylcholine): 14.3 µg/mL (≈ 72.3 µM)
- IC50 (Guinea pig ileum; agonist: BaCl2): 19.7 µg/mL (≈ 100 µM)
- IC50 (Guinea pig ileum; agonist: Histamine): 22.9 µg/mL (≈ 116 µM)
- IC50 (Guinea pig ileum; agonist: Nicotine): 27.8 µg/mL (≈ 141 µM)
- inhibition of charcoal intestinal transit (mice [7]; 4 mg/kg i.p.): 15%
- inhibition of charcoal intestinal transit (mice [7]; 6.2 mg/kg i.p.): 22%
- inhibition of charcoal intestinal transit (mice [7]; 12.5 mg/kg i.p.): 37%
- inhibition of charcoal intestinal transit (mice [7]; doses lower than 4 mg/kg i.p.): inactive
- inhibition of response induced by histamine (guinea pig [8]; 5 min after administration): 100%
- inhibition of response induced by histamine (guinea pig [8]; 10 min after administration): 67%
- inhibition of response induced by histamine (guinea pig [8]; 20 min after administration): 50%
- inhibition of response induced by histamine (guinea pig [8]; 30 min after administration): 15%
- inhibition of response induced by bradykinin (guinea pig [9]): 100%
- sodium excretion (rats [10]): increased
- increase of total urine volume with respect to control (rats [10]; 24 hours period): 44%
- increase of total urine volume with respect to control (rats [10]; first 6 hours): 94%
- LD50 ([11]; ip): 400 to 600 mg/kg
- LD50 ([11]; oral): 600 to 2000 mg/kg
- liver elimination of sulphobromophthalein (rats [12]): eliminated sulphobromophthalein well
- tolerance of gastric and rectal mucosae (rats [12]): tolerated the compound well
- reversibility of hepatomegaly (rats [13]; another study, on discontinuing the administration): fully reversible
- hepatomegaly (rats [13]; oral, 42 days): developed a hepatomegaly
- histology of hepatomegaly (rats [13]; oral, 42 days): increased volume of hepatic nucleoles
- drug-related toxic effect (rats [13]; oral, 42 days, up to 200 mg/kg/day): did not show any drug-related toxic effect
- effect on body weight increase and hematological/serum parameters (rats [14]; 25 mg/kg/day oral): without statistically significant effect
- alteration of parameters compared to control group (rats [14]; 100 mg/kg/day oral): some of these parameters were altered
- survival (rats [14]; oral): all animals survived
- weights of the main organs (rats [14]; oral): within normal limits
- teratogenic potential (rats [15]): did not show any clear specific teratogenic potential
- effect on the cardiocirculatory system (cardiocirculatory system): no effect on the cardiocirculatory system
- activity on the central nervous system (central nervous system; in vivo): Clear activity on the central nervous system was not observed
- signs of depression (central nervous system; mice and rats at high doses): some signs of depression

From patent US4623648A, “1-azaxanthone for use as therapeutic agent as an antipyretic, analgesic, anti-inflammatory and bronchodilator” (priority 1981, dated 1986)
